Measured values taken from US10851069B2, “Compositions of crystallized hydrophobic compounds and methods of making and using same” (Massachusetts Institute of Technology, priority 2016, dated 2020).

Assays:
rat islets = assay: Live/dead islet staining of islets co-encapsulated with drug; assay type: cell-based; conditions: amorphous and crystalline forms
Protocol: Male Sprague-Dawley rats from Jackson Laboratories (Bar Harbor, Me.) weighing approximately 300 grams were used for harvesting islets. All rats were anesthetized by a 1:20 xylazine (10 mg/kg) to ketamine (150 mg/kg) injection given intraperitoneally, and the total volume of each injection was 0.4 ml-0.5 ml depending on the weight of rat. Isolation surgeries were performed as described by Lacy and Kostianovsky^2. Briefly, the bile duct was cannulated and the pancreas was distended by an in vivo injection of 0.15% Liberase (Research Grade, Roche) in RPMI 1640 media solution. Rats were sacrificed by cutting the descending aorta and the distended pancreatic organs were removed and held in 50 ml conical tubes on ice until the completion of all surgeries. All tubes were placed in a 37° C. water bath for a 30 min digestion, which was stopped by adding 10-15 ml of cold M199 media with 10% heat-inactivated fetal bovine serum (HIFBS) and lightly shaking. Digested pancreases were washed twice in the same aforementioned M199 media, filtered through a 450 μm sieve, and then suspended in a Histopaque 1077 (Sigma)/M199 media gradient and centrifuged at 1,700 RCF at 4° C. […] Purified islets were hand-counted by aliquot under a light microscope and then washed three times in sterile ix phosphate-buffered saline. […]

[1] = Drug levels in retrieved capsules, IP lavage and plasma in non-human primates (HPLC, LCMS); assay type: in vivo, cynomolgus macaques
Protocol: LC pumps used are Agilent 1290 Infinity Binary pumps with CTC Pal Autosampler. MS is a Sciex API6500 triple quad. Sample Storage Conditions: −80° C. Sample Processing Extraction Volume: 10 μL. Extraction Method: Protein Precipitation. For example: GW2580 plasma concentration analysis: Sample Extraction Procedure: 1. 10 μL of calibration standards, quality controls, blanks and samples were aliquoted into a 96-well plate. 2. 60 μL of IS-SS (internal standard) (100 ng/mL QNZ, carbutamide, chrysin, carbamazepine, glafenine, dexamethasone, glyburide, and d4AEA in acetonitrile) were added to all samples except for double blanks. 60 μL of acetonitrile was then added to double blanks. 3. The plate was covered and samples mixed, followed by centrifugation for 5 minutes at 3000 rpm at 4° C. 4. 50 μL of supernatant was then transferred into a clean 96-well plate using a liquid handler. 5. Samples were diluted with 100 μL of MilliQ water, and the plate was once again covered and mixed for about a minute prior to sample injection onto the LC-MS/MS at 1.00-2,500 ng/mL. LC Conditions: Waters BEH C18, 50×2.1 mm, 1.7 μm. Run temperature: 50° C. Mobile Phase A, 95:5:0.1 (v:v:v) Water:Acetonitrile:Formic Acid (1.2 min). Mobile Phase B, 50:50:0.1 (v:v:v) Methanol:Acetonitrile:Formic Acid (1.3 min). Flow: 0.8 mL/min. Injection Volume: 2 μL. MS Conditions: MS/MS: API-6500. Ionization Method: Electrospray. Positive/Negative Ion: Positive. Resolution: Unit. Source Temperature (° C.): 550. Transitions (m/z): Compound ID: GW2580 367.0/245.1 Da. Int Std ID: QNZ 357.0/197.1 Da. Data Analysis: Acceptance Criteria ‘±20% (±25% at the LLOQ), Regression Type, Linear (1/(x*x)), Accepted Curve Range 1.00-2,500 ng/mL Carryover 0.00%. HPLC
Calibration curves were obtained on an Agilent LC 1100 Series (Agilent Technologies, CA, USA) equipped with binary pump (G1312 Å), auto-sampler (G1313 Å), degasser and photodiode detector (DAD, G1315 Å). Chemstation was used for system control, data processing and data acquisition for LC. Chromatographic separation was achieved by an analytical Waters Atlantis T3 C18 column (5 μm, 4.6×250 mm). The temperature of column and auto-sampler were kept at 20° C.
Stock solution of GW2580 was prepared in dimethyl sulfoxide (DMSO) at a target concentration of 10 mg/ml and appropriate dilutions were made in DMSO to prepare standards (0.25-2500 μg/ml) for calibration curve of GW2580. 10 μl of standard solution was injected and the analytes were eluted by gradient mode using (A) acetonitrile and (B) 0.1% formic acid in water at a constant flow rate of 1 ml/min. The gradient conditions of mobile phase were as follows: 0 min 10% A, 10 min 95% A, 14 min 95% A, 16 min 10% A, 20 min 10% A.

Compound: COc1ccc(COc2ccc(Cc3cnc(N)nc3N)cc2OC)cc1 [GW2580, 5-[[3-Methoxy-4-[(4-methoxyphenyl)methoxy]phenyl]methyl]-2,4-pyrimidinediamine]
- toxicity to co-encapsulated islets (dead/live imaging) (rat islets): non-toxic
- remaining drug extracted from retrieved capsules ([1]; 0.5 mm capsules, IP space, 3 months): little to no drug
- remaining drug extracted from retrieved capsules ([1]; 1.5 mm capsules, IP and SC sites, up to 6 months): additional stores
- plasma drug concentration ([1]; at the termination of the study): below detection limits
- IP space (lavage) drug concentration ([1]; beyond 4 weeks, below detectable limit): < 0.5 ng/mL
- concentration at 4 weeks ([1]; cynomolgus monkey, intraperitoneal space lavage fluid, ip, 4 weeks post-implantation): 2 to 3 ng/mL
